Reference: patent US20220241249A1, “PHARMACEUTICAL COMPOSITION AND KIT CONTAINING NOVEL PENAM DERIVATIVE OR SALT THEREOF AND ONE OR MORE COMPOUNDS SELECTED FROM beta-LACTAMASE INHIBITORY COMPOUND AND ANTIBACTERIAL COMPOUND OR SALTS THEREOF” (priority 2019, published 2022)
Values after ≈ are worked out from the molar mass of the structure shown. Where two headings read alike, the source gives them in different places.

Key:
Assay in all cases: Antibacterial activity evaluation test, MIC by broth microdilution (CLSI)
Assay type in all cases: cell-based
[1] = tested on: OXA-48-containing Klebsiella pneumoniae strain (Y-1062)
Experimental: (§1) The minimum inhibitory concentration (MIC) was measured according to the Clinical and Laboratory Standards Institute (CLSI) standard method by using the following broth microdilution method.
(§2) As bacteria, a Pseudomonas aeruginosa strain ATCC27853, an AmpC-derepressed Pseudomonas aeruginosa mutant strain (S-3028), an IMP-1-containing Pseudomonas aeruginosa strain (S-2838), a VIM-2-containing Pseudomonas aeruginosa strain (S-3779), a GES-19 and GES-20-containing Pseudomonas aeruginosa strain (S-3759), a CTX-M-15-containing Escherichia coli strain (TK-1747), a KPC-2-containing Klebsiella pneumoniae strain (Y-995), an OXA-48-containing Klebsiella pneumoniae strain (Y-1062), and an NDM-1-containing Klebsiella pneumoniae strain (Y-1007) were used. The test bacterial cells that had been cultured overnight on a Mueller Hinton agar medium were scraped off, suspended at a density equivalent to 0.5 McFarland standard, and diluted 10-fold, thereby obtaining an inoculum. A cation-adjusted Mueller Hinton medium containing a test compound was inoculated with 0.005 mL of the inoculum, and the cells were cultured at 35° C. for 16 to 20 hours. The minimum drug concentration at which the growth of bacteria was not visually observed was defined as MIC (μg/mL).
(§3) An antibacterial activity evaluation test was performed in the same manner as in Test Example 1.

[2] = tested on: IMP-1-containing Pseudomonas aeruginosa strain (S-2838)
Experimental: as §1, §2, §3

[3] = tested on: AmpC-derepressed Pseudomonas aeruginosa mutant strain (S-3028)
Experimental: as §1, §2, §3

[4] = tested on: KPC-2-containing Klebsiella pneumoniae strain (Y-995)
Experimental: as §1, §2, §3

[5] = tested on: CTX-M-15-containing Escherichia coli strain (TK-1747)
Experimental: as §1, §2, §3

[6] = tested on: NDM-1-containing Klebsiella pneumoniae strain (Y-1007)
Experimental: as §1, §2, §3

[7] = tested on: GES-19 and GES-20-containing Pseudomonas aeruginosa strain (S-3759)
Experimental: as §1, §2, §3

[8] = tested on: Pseudomonas aeruginosa strain ATCC27853
Experimental: as §1, §2, §3

[9] = tested on: VIM-2-containing Pseudomonas aeruginosa strain (S-3779)
Experimental: as §1, §2, §3

[10] = Pseudomonas aeruginosa, ATCC27853

Row | Structure (SMILES) | MIC ([1]; Klebsiella pneumoniae) | MIC ([2]; Pseudomonas aeruginosa) | MIC ([3]; Pseudomonas aeruginosa) | MIC ([4]; Klebsiella pneumoniae) | MIC ([5]; Escherichia coli) | MIC ([6]; Klebsiella pneumoniae) | MIC ([7]; Pseudomonas aeruginosa) | MIC ([9]; Pseudomonas aeruginosa) | MIC [8, 10] | also measured
1 | CC(C)(O/N=C(\C(=O)N[C@@H]1C(=O)N2C[C@@](C(=O)O)(N3CCN(NC(=O)C(=O)N(O)CCNC(=O)c4ccc(O)c(O)c4Cl)C3=O)S[C@H]12)c1csc(N)n1)C(=O)O [Example 104, (3R,5R,6R)-6-((Z)-2-(2-aminothiazol-4-yl)-2-(((2-carboxypropan-2-yl)oxy)imino)acetamido)-3-(3-(2-((2-(2-chloro-3,4-dihydroxybenzamido)ethyl)(hydroxy)amino)-2-oxoacetamido)-2-oxoimidazolidin-1-yl)-7-oxo-4-thia-1-azabicyclo[3.2.0]heptane-3-carboxylic acid] | 2 µg/mL (≈ 2.37 µM) | 0.5 µg/mL (≈ 0.593 µM) | 2 µg/mL (≈ 2.37 µM) | 2 µg/mL (≈ 2.37 µM) | 1 µg/mL (≈ 1.19 µM) | < 0.06 µg/mL | 4 µg/mL (≈ 4.74 µM) | 1 µg/mL (≈ 1.19 µM) |  | MIC ([8]; ATCC27853, Pseudomonas aeruginosa ATCC 27853, 35° C., 16 to 20 hours, read-out: MIC): 2 µg/mL (≈ 2.37 µM)
2 | CC[C@H](O/N=C(\C(=O)N[C@@H]1C(=O)N2C[C@@](C(=O)O)(N3CCN(NC(=O)C(=O)c4ccc(O)c(O)c4Cl)C3=O)S[C@H]12)c1csc(N)n1)C(=O)O [Example 105, (3R,5R,6R)-6-((Z)-2-(2-aminothiazol-4-yl)-2-(((S)-1-carboxypropoxy)imino)acetamido)-3-(3-(2-(2-chloro-3,4-dihydroxyphenyl)-2-oxoacetamido)-2-oxoimidazolidin-1-yl)-7-oxo-4-thia-1-azabicyclo[3.2.0]heptane-3-carboxylic acid] | 0.5 µg/mL (≈ 0.675 µM) | 0.25 µg/mL (≈ 0.337 µM) | < 0.06 µg/mL | 0.12 µg/mL (≈ 0.162 µM) | 0.5 µg/mL (≈ 0.675 µM) | < 0.06 µg/mL | 0.5 µg/mL (≈ 0.675 µM) | 0.25 µg/mL (≈ 0.337 µM) | 0.25 µg/mL (≈ 0.337 µM) | 
3 | Nc1nc(/C(=N/OC2(C(=O)O)CC2)C(=O)N[C@@H]2C(=O)N3C[C@@](C(=O)O)(N4CCN(NC(=O)CCNC(=O)C(=O)c5ccc(O)c(O)c5Cl)C4=O)S[C@H]23)c(Cl)s1 [Example 107, (3R,5R,6R)-6-((Z)-2-(2-amino-5-chlorothia-zol-4-yl)-2-((1-carboxy-cyclopropoxy)imino)-acetamido)-3-(3-(3-(2-(2-chloro-3,4-dihydroxy-phenyl)-2-oxoaceta-mido)proanamido)-2-oxoimidazolidin-1-yl)-7-oxo-4-thia-1-aza-bicyclo[3.2.0]heptane-3-carboxylic acid] |  |  |  |  |  |  |  |  |  | MIC ([1]; Klebsiella pneumoniae Y-1062, 35° C., 16 to 20 hours): 0.25 µg/mL (≈ 0.296 µM); MIC ([2]; Pseudomonas aeruginosa S-2838, 35° C., 16 to 20 hours): 0.5 µg/mL (≈ 0.592 µM); MIC ([3]; Pseudomonas aeruginosa S-3028, 35° C., 16 to 20 hours): 2 µg/mL (≈ 2.37 µM); MIC ([4]; Klebsiella pneumoniae Y-995, 35° C., 16 to 20 hours): 2 µg/mL (≈ 2.37 µM); MIC ([5]; Escherichia coli TK-1747, 35° C., 16 to 20 hours): 0.25 µg/mL (≈ 0.296 µM); MIC ([6]; Klebsiella pneumoniae Y-1007, 35° C., 16 to 20 hours): <0.06 µg/mL; MIC ([7]; Pseudomonas aeruginosa S-3759, 35° C., 16 to 20 hours): 0.5 µg/mL (≈ 0.592 µM); MIC ([8]; Pseudomonas aeruginosa ATCC 27853, 35° C., 16 to 20 hours): 0.25 µg/mL (≈ 0.296 µM); MIC ([9]; Pseudomonas aeruginosa S-3779, 35° C., 16 to 20 hours): 0.25 µg/mL (≈ 0.296 µM)
4 | Nc1nc(/C(=N/O[C@@H](CO)C(=O)O)C(=O)NC2C(=O)N3C[C@@](C(=O)O)(N4CCN(NC(=O)C(=O)c5ccc(O)c(O)c5Cl)C4=O)S[C@H]23)cs1 (stereo partly drawn) [Example 113, (3R,5R,6R)-6-((Z)-2-(2-aminothiazol-4-yl)-2-(((S)-1-carboxy-2-hydroxyethoxy)imino)-acetamido)-3-(3-(2-(2-chloro-3,4-dihydroxy-phenyl)-2-oxoaceta-mido)-2-oxoimidazol-idin-1-yl)-7-oxo-4-thia-1-azabicyclo[3.2.0]-heptane-3-carboxylic acid] | 0.25 µg/mL (≈ 0.336 µM) | 0.5 µg/mL (≈ 0.673 µM) | 0.25 µg/mL (≈ 0.336 µM) | 0.12 µg/mL (≈ 0.161 µM) | < 0.06 µg/mL | < 0.06 µg/mL | 1 µg/mL (≈ 1.35 µM) | 0.5 µg/mL (≈ 0.673 µM) | 4 µg/mL (≈ 5.38 µM) | 
5 | CCC[C@H](O/N=C(\C(=O)NC1C(=O)N2C[C@@](C(=O)O)(N3CCN(NC(=O)C(=O)c4ccc(O)c(O)c4Cl)C3=O)S[C@H]12)c1csc(N)n1)C(=O)O (stereo partly drawn) [Example 115, (3R,5R,6R)-6-((Z)-2-(2-aminothiazol-4-yl)-2-(((S)-1-carboxy-butoxy)imino)aceta-mido)-3-(3-(2-(2-chloro-3,4-dihydroxy-phenyl)-2-oxoaceta-mido)-2-oxoimidazol-idin-1-yl)-7-oxo-4-thia-1-azabicyclo[3.2.0]-heptane-3-carboxylic acid] | 1 µg/mL (≈ 1.32 µM) | 1 µg/mL (≈ 1.32 µM) | 0.12 µg/mL (≈ 0.159 µM) | 0.25 µg/mL (≈ 0.331 µM) | 0.25 µg/mL (≈ 0.331 µM) | < 0.06 µg/mL | 0.5 µg/mL (≈ 0.662 µM) | 0.5 µg/mL (≈ 0.662 µM) | 0.5 µg/mL (≈ 0.662 µM) | 
6 | CC(C)(O/N=C(\C(=O)NC1C(=O)N2C[C@@](C(=O)O)(N3CCN(NC(=O)C(=O)NCCNC(=O)C(=O)c4ccc(O)c(O)c4Cl)C3=O)S[C@H]12)c1csc(N)n1)C(=O)O (stereo partly drawn) [Example 121, (3R,5R,6R)-6-((Z)-2-(2-aminothiazol-4-yl)-2-(((2-carboxypropan-2-yl)oxy)imino)aceta-mido)-3-(3-(2-((2-(2-(2-chloro-3,4-dihydroxy-phenyl)-2-oxoaceta-mido)ethyl)amino)-2-oxoacetamido)-2-oxo-imidazolidin-1-yl)-7-oxo-4-thia-1-azabicyclo-[3.2.0]heptane-3-carbox-ylic acid] | 0.5 µg/mL (≈ 0.585 µM) | 4 µg/mL (≈ 4.68 µM) | 2 µg/mL (≈ 2.34 µM) | 0.25 µg/mL (≈ 0.292 µM) | < 0.06 µg/mL | 0.12 µg/mL (≈ 0.14 µM) | 2 µg/mL (≈ 2.34 µM) | 1 µg/mL (≈ 1.17 µM) | 2 µg/mL (≈ 2.34 µM) | 
7 | CC(C)(O/N=C(\C(=O)NC1C(=O)N2C[C@@](C(=O)O)(N3CCN(NC(=O)C(=O)NNC(=O)C(=O)c4ccc(O)c(O)c4Cl)C3=O)S[C@H]12)c1nc(N)sc1Cl)C(=O)O (stereo partly drawn) [Example 136, (3R,5R,6R)-6-((Z)-2-(2-amino-5-chlorothia-zol-4-yl)-2-(((2-carboxy-propan-2-yl)oxy)imino)-acetamido)-3-(3-(2-(2-(2-(2-chloro-3,4-dihydroxyphenyl)-2-oxoacetyl)hydrizinyl)-2-oxoacetamido)-2-oxoimidazolidin-1-yl)-7-oxo-4-thia-1-aza-bicyclo[3.2.0]heptane-3-carboxylic acid] | 0.12 µg/mL (≈ 0.139 µM) | 0.12 µg/mL (≈ 0.139 µM) | 0.12 µg/mL (≈ 0.139 µM) | 0.25 µg/mL (≈ 0.29 µM) | < 0.06 µg/mL | 0.12 µg/mL (≈ 0.139 µM) | 0.5 µg/mL (≈ 0.58 µM) | 0.5 µg/mL (≈ 0.58 µM) | 0.5 µg/mL (≈ 0.58 µM) | 
8 | CC(C)(O/N=C(\C(=O)N[C@@H]1C(=O)N2C[C@@](C(=O)O)(n3nnc(CNC(=O)c4ccc(O)c(O)c4Cl)n3)S[C@H]12)c1csc(N)n1)C(=O)O [Example 141, (3R,5R,6R)-6-((Z)-2-(2-aminothiazol-4-yl)-2-(((2-carboxypropan-2-yl)oxy)imino)acetamido)-3-(5-((2-chloro-3,4-dihydroxybenzamido)methyl)-2H-tetrazol-2-yl)-7-oxo-4-thia-1-azabicyclo[3.2.0]heptane-3-carboxylic acid] | 1 µg/mL (≈ 1.41 µM) | 0.25 µg/mL (≈ 0.352 µM) | 0.5 µg/mL (≈ 0.703 µM) | > 32 µg/mL | 0.5 µg/mL (≈ 0.703 µM) | 0.25 µg/mL (≈ 0.352 µM) | 4 µg/mL (≈ 5.63 µM) | 1 µg/mL (≈ 1.41 µM) | 1 µg/mL (≈ 1.41 µM) | 
9 | CC(C)(O/N=C(\C(=O)NC1C(=O)N2C[C@@](C(=O)O)(N3CCN(NC(=O)C(=O)c4cc(O)c(O)cc4F)C3=O)S[C@H]12)c1csc(N)n1)C(=O)O (stereo partly drawn) [Example 147, (3R,5R,6R)-6-((Z)-2-(2-aminothiazol-4-yl)-2-(((2-carboxypropan-2-yl)oxy)imino)aceta-mido)-3-(3-(2-(2-fluoro-4,5-dihydroxy-phenyl)-2-oxoaceta-mido)-2-oxoimidazol-idin-1-yl)-7-oxo-4-thia-1-azabicyclo[3.2.0]-heptane-3-carboxylic acid] |  |  |  |  |  |  |  |  |  | Antibacterial activity (MIC) Klebsiella pneumoniae Y-1062 ([1]; Klebsiella pneumoniae Y-1062): 4 µg/mL; Antibacterial activity (MIC) Pseudomonas aeruginosa S-2838 ([2]; Pseudomonas aeruginosa S-2838): 4 µg/mL; Antibacterial activity (MIC) Pseudomonas aeruginosa S-3028 ([3]; Pseudomonas aeruginosa S-3028): 0.5 µg/mL; Antibacterial activity (MIC) Klebsiella pneumoniae Y-995 ([4]; Klebsiella pneumoniae Y-995): 0.25 µg/mL; Antibacterial activity (MIC) Escherichia coli TK-1747 ([5]; Escherichia coli TK-1747): 1 µg/mL; Antibacterial activity (MIC) Klebsiella pneumoniae Y-1007 ([6]; Klebsiella pneumoniae Y-1007): < 0.06 µg/mL; Antibacterial activity (MIC) Pseudomonas aeruginosa S-3759 ([7]; Pseudomonas aeruginosa S-3759): 1 µg/mL; Antibacterial activity (MIC) Pseudomonas aeruginosa ATCC 27853 [8, 10]: 1 µg/mL; Antibacterial activity (MIC) Pseudomonas aeruginosa S-3779 ([9]; Pseudomonas aeruginosa S-3779): 1 µg/mL
